Reference: publication PMC7408547, “Bivalent Inhibitor with Selectivity for Trimeric MMP-9 Amplifies Neutrophil Chemotaxis and Enables Functional Studies on MMP-9 Proteoforms” (Cells, 2020)

Experiments:
[1] = molecular target: T1, recombinant human MMP-9 monomers (Homo sapiens, UniProt P14780); test: Gelatin degradation assay, recombinant MMP-9 monomers; format: biochemical; conditions: recombinant human MMP-9 (Sf9) mono
T1 construct: made in house; host or cells: Sf9 insect cells
Description: (§1) Compounds 5 and 7 were synthesized as previously reported. Full-length human proMMP-9 was produced by recombinant expression in Sf9 insect cells and purified by gelatin-Sepharose chromatography as previously described. Stable full-length proMMP-9 monomers and trimers were separated by glycerol gradient ultracentrifugation as previously described. ProMMP-9 mixture and the separated monomers and trimers were activated by incubation with the catalytic domain of MMP-3 (cat. No. 444217, Merck Millipore, Darmstadt, Germany) as previously described. Activation of proMMP-9 was confirmed by a band shift of ±10 kDa, corresponding to the removal of the auto-inhibitory propeptide domain and by detection of gelatinolytic activity with a previously described gelatin degradation assay. MMP-9 monomers and trimers purified from human neutrophils were purchased (Cat. No. 444,231 and 444232, Sigma-Aldrich, St. Louis, MO, USA). Examples of sample purities and activations can be found in Supplementary Figure S1. Recombinant human proMMP-2 (CHO cell-derived), proMMP-3 (NS0 cell-derived), proMMP-7 (NS0 cell-derived) and proMMP-8 (NS0 cell-derived) were purchased from R & D systems (Minneapolis, MN, USA), dissolved in assay buffer (150 mM NaCl, 5 mM CaCl2, 0.01% Tween-20, 50 mM Tris, pH 7.4) to a concentration of 100 µg/mL and activated by incubation with 1 mM p-aminophenylmercuric acetate for, respectively, 1h, 6h, 2h and 1h. Activation of MMPs was confirmed by a band shift of approximately 10 kDa, corresponding to the removal of the propeptide domain. MMP-14/MT1-MMP (NS0 cell-derived) was also purchased from R & D systems (Minneapolis, MN, USA) and activated by incubation with recombinant human furin (cat. No. 1503-SE-010, R & D systems, Minneapolis, MO, USA) in activation buffer (50 mM Tris, 1 mM CaCl2, 0.5% Brij-35, pH 9) for 1.5 h and activity was tested in assay buffer (50 mM Tris, 3 mM CaCl2, 1 µM ZnCl2, pH 8.5). Active human neutrophil elastase (NE) was purchased from Abcam (Cambridge, UK) and for activity assays of NE the assay buffer was replaced by 200 mM Tris, pH 8.8. ADAM17/TACE (Sf 21 (baculovirus)-derived, R & D systems, Minneapolis, MO, USA) was diluted and evaluated in 25 mM Tris, 2.5 μM ZnCl2, 0.005% Brij-35, pH 9.0. All stocks of the compounds were evaluated for the presence of endotoxin using the EndoZyme II assay (Hyglos bioMérieux, Bernried am Starnberger See, Germany). Endotoxin levels in all concentrated stocks (2.5 mg/mL) were below the accepted limit of 0.5 EU/mL.
(§2) To determine the inhibition of gelatinolytic activity, we used a previously optimized gelatin degradation assay. Activated MMP-9, activated MMP-2, neutrophil elastase or supernatants of stimulated neutrophils, were incubated with different concentrations of inhibitors and incubated for 30 min at 37 °C. Next, dye-quenched gelatin (DQ™-gelatin, Invitrogen, Carlsbad, CA, USA) was added at a final concentration of 2.5 µg/mL and the increase in fluorescence over time was measured with the CLARIOstar microplate reader (BMG Labtech, Ortenberg, Germany). For other MMPs, the OmniMMP substrate peptide (Mca-PLGL-Dpa-AR-NH2, cat. no. BML-P126-0001, Enzo Life Sciences, Farmingdale, NY, USA) was used at a final concentration of 2.5 µg/mL. For ADAM17 the fluorogenic peptide Mca-PLAQAV-Dpa-RSSSR-NH2 (ES003, R & D systems, Minneapolis, MO, USA) and for neutrophil elastase the fluorogenic substrate MeOSuc-AAPV-AMC (cat. no. 324740, Merck Millipore, Darmstadt, Germany) were used. Proteolytic activity was determined by linear regression of the fluorescence curve and the percentage inhibition was calculated through comparison with the positive control (no inhibitors). When testing supernatants from human neutrophils, the assay was performed in the presence of 20 µM neutrophil elastase inhibitor (Elastase Inhibitor IV, Calbiochem, Darmstadt, Germany).

[2] = molecular target: T2, recombinant human MMP-9 trimers (Homo sapiens, UniProt P14780); test: Gelatin degradation assay, recombinant MMP-9 trimers; format: biochemical
T2 construct: made in house; host or cells: Sf9 insect cells
T2 sequence (P14780 107-707 limits assumed): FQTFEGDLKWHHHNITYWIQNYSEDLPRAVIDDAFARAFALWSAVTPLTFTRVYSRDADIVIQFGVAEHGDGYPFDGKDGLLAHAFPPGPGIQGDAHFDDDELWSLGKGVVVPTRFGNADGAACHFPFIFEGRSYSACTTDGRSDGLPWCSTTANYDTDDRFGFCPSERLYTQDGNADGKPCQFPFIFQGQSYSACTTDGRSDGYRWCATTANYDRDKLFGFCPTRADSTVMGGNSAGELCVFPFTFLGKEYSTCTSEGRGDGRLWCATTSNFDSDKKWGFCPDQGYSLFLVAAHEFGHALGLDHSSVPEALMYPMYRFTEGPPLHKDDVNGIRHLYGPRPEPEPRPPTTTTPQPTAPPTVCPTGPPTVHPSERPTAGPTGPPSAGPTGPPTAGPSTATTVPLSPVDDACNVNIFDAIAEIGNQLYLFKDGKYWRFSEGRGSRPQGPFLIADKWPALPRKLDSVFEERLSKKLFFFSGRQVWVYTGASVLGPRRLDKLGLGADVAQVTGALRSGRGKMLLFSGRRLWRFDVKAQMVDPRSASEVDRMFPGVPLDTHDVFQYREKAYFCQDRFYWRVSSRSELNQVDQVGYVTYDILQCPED
Description: as §1, §2

[3] = molecular target: T3, MMP-8/neutrophil collagenase (Homo sapiens, UniProt P22894); test: MMP-8 OmniMMP peptide assay; format: biochemical; conditions: for IC50: OmniMMP substrate peptide
T3 construct: purchased R & D systems; host or cells: NS0 cells
T3 sequence (P22894 101-467): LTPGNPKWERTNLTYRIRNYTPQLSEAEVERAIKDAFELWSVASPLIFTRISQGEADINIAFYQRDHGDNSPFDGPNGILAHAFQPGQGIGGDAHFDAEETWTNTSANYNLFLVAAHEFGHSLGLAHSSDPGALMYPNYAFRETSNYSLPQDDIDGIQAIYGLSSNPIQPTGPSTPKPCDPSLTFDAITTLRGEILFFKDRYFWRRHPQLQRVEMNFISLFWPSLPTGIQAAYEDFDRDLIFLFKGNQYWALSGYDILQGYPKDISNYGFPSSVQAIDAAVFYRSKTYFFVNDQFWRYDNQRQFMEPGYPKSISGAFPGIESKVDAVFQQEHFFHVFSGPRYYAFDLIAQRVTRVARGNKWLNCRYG
Description: Compounds 5 and 7 were synthesized as previously reported. Full-length human proMMP-9 was produced by recombinant expression in Sf9 insect cells and purified by gelatin-Sepharose chromatography as previously described. Stable full-length proMMP-9 monomers and trimers were separated by glycerol gradient ultracentrifugation as previously described. ProMMP-9 mixture and the separated monomers and trimers were activated by incubation with the catalytic domain of MMP-3 (cat. No. 444217, Merck Millipore, Darmstadt, Germany) as previously described. Activation of proMMP-9 was confirmed by a band shift of ±10 kDa, corresponding to the removal of the auto-inhibitory propeptide domain and by detection of gelatinolytic activity with a previously described gelatin degradation assay. MMP-9 monomers and trimers purified from human neutrophils were purchased (Cat. No. 444,231 and 444232, Sigma-Aldrich, St. Louis, MO, USA). Examples of sample purities and activations can be found in Supplementary Figure S1. […] ADAM17/TACE (Sf 21 (baculovirus)-derived, R & D systems, Minneapolis, MO, USA) was diluted and evaluated in 25 mM Tris, 2.5 μM ZnCl2, 0.005% Brij-35, pH 9.0. All stocks of the compounds were evaluated for the presence of endotoxin using the EndoZyme II assay (Hyglos bioMérieux, Bernried am Starnberger See, Germany). […]
To determine the inhibition of gelatinolytic activity, we used a previously optimized gelatin degradation assay. […] Next, dye-quenched gelatin (DQ™-gelatin, Invitrogen, Carlsbad, CA, USA) was added at a final concentration of 2.5 µg/mL and the increase in fluorescence over time was measured with the CLARIOstar microplate reader (BMG Labtech, Ortenberg, Germany). […] Proteolytic activity was determined by linear regression of the fluorescence curve and the percentage inhibition was calculated through comparison with the positive control (no inhibitors). […]

U-87 cell line = test: U-87 cell viability (LIVE/DEAD); format: cell-based; conditions: up to a concentration of 20 µM; 17 h
Description: Toxicity of compounds 5 and 7 was evaluated in vitro on the U-87 cell line. Briefly, U-87 cells were seeded in 96-well plates (cat. No. 92096, TPP Techno Plastic Products, Trasadingen, Switzerland) at 2000 cells/well in DMEM FluoroBrite containing 10% FBS and incubated for 24 h. Cells were washed and further grown in DMEM FluoroBrite with 5% KnockOut™ Serum Replacement (Gibco, Waltham, MA, USA). Compounds 5 and 7 were added to the wells in a 1:2 dilution series starting at 20 µM and ending at 0.16 µM. To evaluate the effect of the compound on cell growth, confluence was determined every hour for 17h using the Incucyte® S3 Live-Cell Analysis System (Sartorius, Göttingen, Germany). Next, cells were stained with the LIVE/DEAD™ Viability/Cytotoxicity Kit for mammalian cells (Invitrogen, Carlsbad, CA, USA; cat. # L3224) and cell viability was evaluated. Data were normalized to the mean confluence of wells containing no inhibitors. To measure the stability of the compounds, fresh blood was collected from heathy mice by cardiac puncture with a heparin-coated needle and syringe and 30UI/mL heparin was added. Next, compound 5, compound 7 or vehicle (DMSO) was added to the blood at a final concentration of 500 µM and incubated at 37 °C. […] Background inhibition was subtracted and results were expressed as percentage inhibition.

[4] = recombinant human MMP-9 (Sf9) tri, gelatin degradation

T1 sequence (P14780 107-707 limits assumed): as the sequence (P14780 107-707 limits assumed) above

SMILES | IC25 [1] [nM] | IC50 [1] [nM] | IC75 [1] [nM] | IC25 [2, 4] [nM] | IC50 [2, 4] [nM] | IC75 [2, 4] [nM] | IC50 [3] [nM] | cellular toxicity (cell viability of U-87 cells) (U-87 cell line) | fold more potent at inhibiting gelatinolysis by trimeric versus monomeric MMP-9 ([2]; recombinant human MMP-9, gelatin substrate) | fold less inhibition of MMP-8 than of trimeric MMP-9 ([3]; peptide substrate)
CC(C)[C@H](C(=O)O)N(CCNC(=O)c1ccccc1)S(=O)(=O)c1ccc(-c2ccccc2)cc1 [Compound 5] | 392 | 1520 | 5859 | 526 | 2250 | 9660 | 331 | nor did they induce cellular toxicity |  | 
CC(C)[C@H](C(=O)O)N(CCNC(=O)c1cccc(C(=O)NCCN([C@@H](C(=O)O)C(C)C)S(=O)(=O)c2ccc(-c3ccccc3)cc2)c1)S(=O)(=O)c1ccc(-c2ccccc2)cc1 [Compound 7] | 48 | 191 | 754 |  | 0.18 | 18 | 14.5 | nor did they induce cellular toxicity | over 1000 fold | more than 100 fold
